For data set [1], the system named is Pseudomonas aeruginosa. Put plainly: Antibacterial activity against Pseudomonas aeruginosa PAO1 assessed as inhibition of visible bacterial growth by CLSI based broth-microdilution method. Format: functional.
Another data set relates to Acinetobacter baumannii. Put plainly: Antibacterial activity against Acinetobacter baumannii ATCC 17978 assessed as inhibition of visible bacterial growth by CLSI based broth-microdilution method. Format: functional.
The next data set deals with Escherichia coli. The data set can be described thus: Antibacterial activity against Escherichia coli ATCC 25922 assessed as inhibition of visible bacterial growth by CLSI based broth-microdilution method. It is filed as functional.
Data set [2] concerns Pseudomonas aeruginosa. The data set can be described thus: Synergistic antibacterial activity against Pseudomonas aeruginosa PAO1 assessed as fold change in minocycline MIC by checkerboard analysis relative to minocycline alone. Format: functional.
Data set [3] has as its system Pseudomonas aeruginosa. Put plainly: Synergistic antibacterial activity against Pseudomonas aeruginosa PAO1 assessed as fold change in doxycycline MIC by checkerboard analysis relative to doxycycline alone. It is filed as functional.
In data set [4] the test system is Pseudomonas aeruginosa. The data set can be described thus: Synergistic antibacterial activity against Pseudomonas aeruginosa PAO1 assessed as fold change in tigecycline MIC by checkerboard analysis relative to Tigecycline alone. Format: functional.
Data set [5] has as its system Pseudomonas aeruginosa. Put plainly: Antibacterial activity against Pseudomonas aeruginosa PA259 assessed as inhibition of visible bacterial growth by CLSI based broth-microdilution method. It is filed as functional.
The subject of data set [6] is Pseudomonas aeruginosa. Put plainly: Antibacterial activity against Pseudomonas aeruginosa PA262 assessed as inhibition of visible bacterial growth by CLSI based broth-microdilution method. Format: functional.
The subject of data set [7] is Pseudomonas aeruginosa. The data set can be described thus: Antibacterial activity against Pseudomonas aeruginosa PA264 assessed as inhibition of visible bacterial growth by CLSI based broth-microdilution method. Format: functional.
The subject of data set [8] is Pseudomonas aeruginosa. The data set can be described thus: Antibacterial activity against Pseudomonas aeruginosa PA100036 assessed as inhibition of visible bacterial growth by CLSI based broth-microdilution method. It is filed as functional.
Data set [9] deals with Pseudomonas aeruginosa. The data set can be described thus: Antibacterial activity against Pseudomonas aeruginosa PA114228 assessed as inhibition of visible bacterial growth by CLSI based broth-microdilution method. It is filed as functional.
For data set [10], the system named is Pseudomonas aeruginosa. Put plainly: Antibacterial activity against Pseudomonas aeruginosa PA101243 assessed as inhibition of visible bacterial growth by CLSI based broth-microdilution method. Format: functional.
The test system of data set [11] is Pseudomonas aeruginosa. The data set can be described thus: Antibacterial activity against Pseudomonas aeruginosa PA095 assessed as inhibition of visible bacterial growth by CLSI based broth-microdilution method. Format: functional.
Data set [12] deals with Pseudomonas aeruginosa. The data set can be described thus: Antibacterial activity against Pseudomonas aeruginosa PA200 assessed as inhibition of visible bacterial growth by CLSI based broth-microdilution method. It is filed as functional.
Data set [13] relates to Pseudomonas aeruginosa. Put plainly: Synergistic antibacterial activity against Pseudomonas aeruginosa PAO1 assessed as fold change in eravacycline MIC by checkerboard analysis relative to eravacycline alone. It is filed as functional.
Data set [14] concerns HEK293. Put plainly: Cytotoxicity against HEK293 cells assessed as reduction in cell viability at 7 uM. Format: toxicity, cell-based. The note with it: human, hek293, 7 µM.
For data set [15], the system named is HEK293. Put plainly: Cytotoxicity against HEK293 cells assessed as reduction in cell viability at 162 uM. It is filed as toxicity, cell-based. The settings on record: human, hek293, 162 µM.
Data set [16] relates to HepG2. Put plainly: Cytotoxicity against human HepG2 cells assessed as reduction in cell viability. Format: functional.
Data set [17] has as its system HepG2. The data set can be described thus: Cytotoxicity against human HepG2 cells assessed as inhibition of cell vitality at 162 uM. Format: functional. More on the design: scale not given: the % may be the effect or the level left.
Data set [18] concerns HepG2. The data set can be described thus: Cytotoxicity against human HepG2 cells assessed as reduction in cell viability at 400 uM. It is filed as functional, cell-based.

Values after ≈ are worked out from the molar mass of the structure shown. Active and inactive are the calls of the source. No cut-off for these calls is given here.

Take `CCCCCCCCCCCCNC(=O)c1cn(C2CC2)c2cc(N3CCNCC3)c(F)cc2c1=O.Cl`: the MIC in the data set on Pseudomonas aeruginosa [1] was over 120 µg/mL; with Acinetobacter baumannii, over 128 µg/mL; in the data set on Escherichia coli, over 128 µg/mL.
As to `CC(=O)NCCCCCCCCCCCCO[C@@H]1[C@@H](O[C@H]2O[C@H](CO)[C@@H](O)[C@H](N)[C@H]2O)[C@H](N)C[C@H](N)[C@H]1O[C@H]1O[C@H](CN)[C@@H](O)C[C@H]1N.Cl.Cl.Cl.Cl.Cl`, the MIC in the data set on Pseudomonas aeruginosa [1] is over 120 µg/mL; in the data set on Acinetobacter baumannii it was over 128 µg/mL; in the data set with Escherichia coli, over 128 µg/mL. The “fold change (FC)” value worked out at 4 with Pseudomonas aeruginosa [2], 8 with Pseudomonas aeruginosa [3] and 1 in the data set on Pseudomonas aeruginosa [4].
Regarding `CN(C)[C@@H]1C(O)=C(C(N)=O)C(=O)[C@@]2(O)C(O)=C3C(=O)c4c(O)c(NC(=O)CN5CCCC5)cc(F)c4C[C@H]3C[C@@H]12` [ERAVACYCLINE], the MIC turned out to be 32 µg/mL (≈ 57.3 µM) in the data set on Pseudomonas aeruginosa [5]; 64 µg/mL (≈ 115 µM) in the data set with Pseudomonas aeruginosa [6]; 32 µg/mL (≈ 57.3 µM) in the data set with Pseudomonas aeruginosa [7]; 32 µg/mL (≈ 57.3 µM) with Pseudomonas aeruginosa [8]; 16 µg/mL (≈ 28.6 µM) in the data set on Pseudomonas aeruginosa [9]; 8 µg/mL (≈ 14.3 µM) with Pseudomonas aeruginosa [10]. In addition, the MIC with Pseudomonas aeruginosa [11] stood at 32 µg/mL (≈ 57.3 µM); with Pseudomonas aeruginosa [12], 0.5 µg/mL (≈ 0.895 µM).
As to `CN(C)c1ccc(O)c2c1C[C@H]1C[C@H]3[C@H](N(C)C)C(O)=C(C(N)=O)C(=O)[C@@]3(O)C(O)=C1C2=O` [MINOCYCLINE], the MIC is 128 µg/mL (≈ 280 µM) with Pseudomonas aeruginosa [5]; 256 µg/mL (≈ 560 µM) in the data set with Pseudomonas aeruginosa [6]; 128 µg/mL (≈ 280 µM) with Pseudomonas aeruginosa [7]; 128 µg/mL (≈ 280 µM) in the data set with Pseudomonas aeruginosa [8]; 256 µg/mL (≈ 560 µM) in the data set with Pseudomonas aeruginosa [9]; 8 µg/mL (≈ 17.5 µM) with Pseudomonas aeruginosa [10]. The MIC amounted to 64 µg/mL (≈ 140 µM) in the data set with Pseudomonas aeruginosa [11] and 0.5 µg/mL (≈ 1.09 µM) in the data set with Pseudomonas aeruginosa [12].
As to `NC[C@H]1O[C@H](O[C@H]2[C@H](O)[C@@H](O[C@H]3O[C@H](CO)[C@@H](O)[C@H](N)[C@H]3O)[C@H](N)C[C@@H]2N)[C@H](N)C[C@@H]1O` [TOBRAMYCIN], the MIC in the data set with Pseudomonas aeruginosa [1] was determined as 0.5 µg/mL (≈ 1.07 µM); with Acinetobacter baumannii it was 0.5 µg/mL (≈ 1.07 µM); in the data set on Escherichia coli it was 2 µg/mL (≈ 4.28 µM).
Turning to `C[C@H]1c2cccc(O)c2C(=O)C2=C(O)[C@]3(O)C(=O)C(C(N)=O)=C(O)[C@@H](N(C)C)[C@@H]3[C@@H](O)[C@@H]21` [DOXYCYCLINE ANHYDROUS], the MIC in the data set with Pseudomonas aeruginosa [5] was 64 µg/mL (≈ 144 µM); in the data set with Pseudomonas aeruginosa [6], over 512 µg/mL; in the data set with Pseudomonas aeruginosa [7], over 64 µg/mL; in the data set with Pseudomonas aeruginosa [8], over 128 µg/mL; in the data set with Pseudomonas aeruginosa [9], 64 µg/mL (≈ 144 µM); in the data set with Pseudomonas aeruginosa [10], 16 µg/mL (≈ 36 µM). The values for the MIC with Pseudomonas aeruginosa [11] and in the data set with Pseudomonas aeruginosa [12] were 64 µg/mL (≈ 144 µM) and 1 µg/mL (≈ 2.25 µM), respectively.
With `Cl.Cl.Cl.Cl.Cl.Cl.NC[C@H]1O[C@H](O[C@H]2[C@H](OCc3ccc(-c4ccc(CNC(=O)c5cn(C6CC6)c6cc(N7CCNCC7)c(F)cc6c5=O)cc4)cc3)[C@@H](O[C@H]3O[C@H](CO)[C@@H](O)[C@H](N)[C@H]3O)[C@H](N)C[C@@H]2N)[C@H](N)C[C@@H]1O`, the MIC was over 120 µg/mL in the data set on Pseudomonas aeruginosa [1], over 128 µg/mL in the data set with Acinetobacter baumannii and over 128 µg/mL in the data set with Escherichia coli. In addition, the “fold change (FC)” value with Pseudomonas aeruginosa [2], with Pseudomonas aeruginosa [3], in the data set on Pseudomonas aeruginosa [4] and in the data set with Pseudomonas aeruginosa [13] was 16 in each case. For the same molecule, the Activity result was “Non-toxic” in the data set with HEK293 [14], 27% with HEK293 [15], 88% in the data set with HepG2 [16] and 40% with HepG2 [17]. Also, the outcome in the data set on HepG2 [18] was Active.
`CN(C)c1cc(NC(=O)CNC(C)(C)C)c(O)c2c1C[C@H]1C[C@H]3[C@H](N(C)C)C(O)=C(C(N)=O)C(=O)[C@@]3(O)C(O)=C1C2=O` [TIGECYCLINE]: the MIC with Pseudomonas aeruginosa [5] was 32 µg/mL (≈ 54.6 µM); with Pseudomonas aeruginosa [6], 64 µg/mL (≈ 109 µM); in the data set with Pseudomonas aeruginosa [7] it was 32 µg/mL (≈ 54.6 µM); in the data set on Pseudomonas aeruginosa [8], 64 µg/mL (≈ 109 µM); in the data set with Pseudomonas aeruginosa [9] it was 64 µg/mL (≈ 109 µM); in the data set with Pseudomonas aeruginosa [10], 8 µg/mL (≈ 13.7 µM). In addition, the figures for the MIC in the data set on Pseudomonas aeruginosa [11] and in the data set on Pseudomonas aeruginosa [12] were 32 µg/mL (≈ 54.6 µM) and 1 µg/mL (≈ 1.71 µM), respectively.
As for `Cl.Cl.Cl.Cl.Cl.Cl.NC[C@H]1O[C@H](O[C@H]2[C@H](OCCCCCCCCNC(=O)c3cn(C4CC4)c4cc(N5CCNCC5)c(F)cc4c3=O)[C@@H](O[C@H]3O[C@H](CO)[C@@H](O)[C@H](N)[C@H]3O)[C@H](N)C[C@@H]2N)[C@H](N)C[C@@H]1O`, the minimal inhibitory concentration (MIC) in the data set on Pseudomonas aeruginosa [1] is over 120 µg/mL; with Acinetobacter baumannii it was over 128 µg/mL; in the data set on Escherichia coli it was over 128 µg/mL. For the same molecule, the “fold change (FC)” value in the data set with Pseudomonas aeruginosa [2], in the data set with Pseudomonas aeruginosa [3], in the data set on Pseudomonas aeruginosa [4] and in the data set with Pseudomonas aeruginosa [13] was 4 throughout. Moreover, the Activity entry was “Non-toxic” in the data set with HEK293 [14], 69% in the data set on HepG2 [16] and 55% in the data set with HepG2 [17].
For `Cl.Cl.Cl.Cl.Cl.Cl.NC[C@H]1O[C@H](O[C@H]2[C@H](OCCOCCOCCOCCNC(=O)c3cn(C4CC4)c4cc(N5CCNCC5)c(F)cc4c3=O)[C@@H](O[C@H]3O[C@H](CO)[C@@H](O)[C@H](N)[C@H]3O)[C@H](N)C[C@@H]2N)[C@H](N)C[C@@H]1O`, the MIC was over 120 µg/mL with Pseudomonas aeruginosa [1], over 128 µg/mL in the data set with Acinetobacter baumannii and over 128 µg/mL in the data set with Escherichia coli. For the same molecule, the results for the Activity result in the data set on HEK293 [14], in the data set on HepG2 [16] and with HepG2 [17] were “Non-toxic”, 60% and 60%, respectively.

For the origin of these results see ChEMBL document CHEMBL6078622, “Enhancing outer membrane permeability of tetracycline antibiotics in P. aeruginosa using TOB-CIP conjugates” (RSC Med Chem, 2024).
